This is an account of results in the kinase profiling compilation of Christmann-Franck et al. (2016).

For this test, the target named is SGK1 (human) (UniProt O00141). The test is described as follows: Flashplate.

The structures appear in SMILES notation.

Chain of SGK1 (human) (O00141 whole entry, looked up): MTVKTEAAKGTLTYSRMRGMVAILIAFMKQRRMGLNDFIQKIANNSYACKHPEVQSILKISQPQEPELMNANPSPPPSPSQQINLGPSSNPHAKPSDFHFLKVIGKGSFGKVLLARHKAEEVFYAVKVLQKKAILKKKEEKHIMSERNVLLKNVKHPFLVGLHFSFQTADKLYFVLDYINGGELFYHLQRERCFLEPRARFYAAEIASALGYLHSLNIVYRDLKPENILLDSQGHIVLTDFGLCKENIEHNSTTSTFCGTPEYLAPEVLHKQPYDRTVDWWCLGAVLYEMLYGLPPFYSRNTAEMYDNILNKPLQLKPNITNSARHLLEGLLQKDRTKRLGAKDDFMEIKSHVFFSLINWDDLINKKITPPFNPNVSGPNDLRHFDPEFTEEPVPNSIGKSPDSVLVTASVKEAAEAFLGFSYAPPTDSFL

For `Nc1ncnc2scc(-c3ccc(NC(=O)Nc4cc(C(F)(F)F)ccc4F)cc3)c12`, the Ki was found to be 3.16 µM.

In turn, `Oc1ccc(Nc2ncnc3scc(Cl)c23)cc1` returned a Ki above 10 µM.

The compound `Cc1nccn2c(-c3ccnc(NCC(C)(C)CO)n3)c(-c3ccc(F)cc3F)nc12` gave a Ki above 10 µM.

For the compound `Cc1cccc(Nc2nc(N[C@@H]3CCCC[C@@H]3N)cnc2C(N)=O)c1`, the Ki was above 7.94 µM.

The compound `Cc1cccc(NC(=O)Nc2ccc(-c3csc4c(-c5cnn(C)c5)cnc(N)c34)cc2)c1` yielded a Ki above 10 µM.

`COc1cccc([C@@H](C)NC(=O)c2ccc(-c3ccncc3)cc2NCCCN)c1`: the Ki was determined as 0.398 µM.

Take `Cc1ccccc1-c1c(C(=O)O)n(CCCOc2cccc3ccccc23)c2ccccc12`: the Ki is above 10 µM.

For `COc1cccc2c1Nc1cc(Nc3ccncc3)ccc1C(=O)N2`, the Ki is above 10 µM.

For the compound `CCCC(=O)Nc1cccc(-c2nc(Nc3ccc4[nH]ncc4c3)c3cc(OCCN4CCCC4)ccc3n2)c1`, the Ki is 0.501 µM.

The compound `COc1ccc(CNc2c(Nc3ccc4[nH]ncc4c3)c(=O)c2=O)cc1` displayed an inhibitory constant (Ki) above 10 µM.

Take `Cc1cc(C)cc(NC(=O)Nc2ccc(NC(=O)c3csc4ncnc(N)c34)cc2)c1`: the Ki was above 10 µM.

On to `Cc1cccc(NC(=O)Nc2ccc(-c3cccc4[nH]nc(N)c34)cc2)c1`, for which the Ki turned out to be 1 µM.

Compound `CC(C)(C(N)=O)n1cc(-c2cnc(N)c3c(-c4ccc(NC(=O)Nc5cccc(F)c5)cc4)csc23)cn1` gave a Ki of 3.16 µM. This Ki is about 3.2-fold higher than that of the compound before.

With `O=C(NNC(=S)Nc1ccc(Cl)cc1)C(O)(c1ccccc1)c1ccccc1`, the inhibition constant (Ki) is above 10 µM.

As to `Oc1ccc(-c2n[nH]c(Nc3cccc(Cl)c3)c2-c2ccc(O)cc2)cc1`, the Ki amounted to 0.631 µM.

The compound `O=C(O)c1ccccc1Nc1ccnc(Nc2ccc3[nH]ncc3c2)n1` yielded a Ki of 0.501 µM.

As for `O=C1NN=Cc2c[nH]c3cc(NC(=O)[C@@H]4C[C@H]4c4ccccc4)cc1c23`, the Ki was 0.0398 µM. This Ki is about 13-fold lower than that of the compound before.

`O=C(N/N=C/c1ccc(O)cc1O)Nc1cccc2nsnc12` had a Ki of 0.126 µM.

`CC(C)(CO)CNc1nccc(-c2c(-c3ccc(F)cc3)nc3c(OCC(F)(F)F)nccn23)n1`: the inhibitory constant (Ki) is above 10 µM.

The compound `Cc1cccc(-c2[nH]c(-c3ccnc(N)n3)cc2C(N)=O)c1C` registered a Ki above 10 µM.

In turn, `O=C(Nc1cccc(C(F)(F)F)n1)Nc1ccnc2c(Cl)cccc12` came in with a Ki above 10 µM.

Compound `CCc1nccn2c(-c3ccnc(NCC(C)(C)O)n3)c(-c3ccc(F)cc3F)nc12` gave a Ki above 10 µM.

The compound `Fc1cnc(Nc2ccccc2)nc1Nc1ccccc1` registered a Ki above 10 µM.

On to `O=C1CCCc2oc3cc(C(F)(F)F)ccc3c(=O)c21`, for which the Ki is above 10 µM.

`Cc1nc2ccc(NS(=O)(=O)c3ccc(N)cc3)cc2nc1C`: the Ki was above 10 µM.

In the case of `Cc1ccc(NC(=O)Nc2ccc(-c3csc4c(-c5cnn(C)c5)cnc(N)c34)cc2)cc1`, the Ki was above 10 µM.

In turn, `Nc1ncnc2c1sc1ncnc(N)c12` gave a Ki of 0.158 µM.

As for `CNCc1ccc(-c2[nH]c3cc(F)cc4c3c2CCNC4=O)cc1`, the Ki was above 10 µM.

In the case of `Cn1cc(-c2cnn3c(N)c(-c4ccc(NC(=O)Nc5cccc(C(F)(F)F)c5)cc4)cnc23)cn1`, the Ki was above 10 µM.

For the compound `Cc1cccc(NC(=O)Nc2ccc(-c3cccc4[nH]ncc34)cc2)c1`, the inhibitory constant (Ki) worked out at 2 µM.

The compound `COCCN(C)C(=O)c1c(-c2ccc3[nH]ncc3c2)nnn1Cc1ccccc1` registered a Ki of 1.58 µM.

Take `COc1cc(-c2nn([C@H]3CC[C@H](N4CCN(C(C)=O)CC4)CC3)c3ncnc(N)c23)ccc1NC(=O)c1cc2ccccc2n1C`: the Ki is above 10 µM.

Turning to `N#Cc1ccc(-c2n[nH]c3c2Cc2ccc(OCCN4CCOCC4)cc2-3)cn1`, the Ki was above 10 µM.

The compound `CCOc1nc(C(=O)NCc2ccccc2S(N)(=O)=O)cc(N)c1C#N` showed a Ki above 6.31 µM.

With `CN(C)c1cccc2c(S(=O)(=O)N(CCN)c3cncc(-c4ccc5cnccc5c4)c3)cccc12`, the Ki is 3.98 µM.

In turn, `Cc1cc(-c2ccccc2)n(-c2cc(N/N=C/c3ccco3)ncn2)n1` came in with an inhibition constant (Ki) above 10 µM.

In turn, `Cc1cc(Nc2ncc(F)c(N[C@H]3[C@@H](C(N)=O)[C@@H]4C=C[C@H]3C4)n2)ccc1N1CCN(C)CC1` displayed a Ki of 1.58 µM.

For the compound `Cc1n[nH]c2cnc(-c3cncc(OC[C@@H](N)Cc4cccc(C(F)(F)F)c4)c3)cc12`, the Ki is 0.0631 µM.

`Nc1ncc(-c2ccoc2)c2scc(-c3ccc(NC(=O)Nc4ccccc4F)cc3)c12`: the Ki was above 10 µM.

On to `COc1cccc(/C=C2/S/C(=N\c3ccccc3)NC2=O)c1`, for which the Ki was above 10 µM.

As for `COc1cc(Nc2ncnc3ccc(-c4ccc(CN5C[C@@H]6C(CO)[C@@H]6C5)cc4)cc23)ccc1Oc1ccccc1` (some centres undefined), the Ki was above 10 µM.

Compound `COc1ccc(/C=C2/S/C(=N/c3ccccc3)NC2=O)cc1OC` came in with a Ki above 10 µM.

The compound `Nc1ncc(-c2cnn(CCO)c2)c2scc(-c3ccc(NC(=O)Nc4cccc(F)c4)cc3)c12` showed an inhibition constant (Ki) of 2.51 µM.

On to `Cc1ccc(C(=O)Nc2ccon2)cc1Nc1ncnc2c1cnn2-c1ccccc1`, for which the Ki was above 10 µM.

Turning to `Cn1nc(C(F)(F)F)c2c(=O)c3cc(Cl)ccc3n(O)c21`, the Ki was above 10 µM.

For `Cc1ccc(NC(=O)Nc2ccc(-c3csc4c(-c5cnn(C(C)C(=O)N(C)C)c5)cnc(N)c34)cc2)cc1` (centres undefined), the inhibition constant Ki was above 10 µM.

`COCC(C)(C)CNc1nccc(-c2c(-c3ccc(F)cc3)nc3c(C)nccn23)n1` had a Ki above 10 µM.

As to `NC(=O)c1cccc2c1Nc1nnc(Cl)cc1C(=O)N2`, the inhibition constant (Ki) is 7.94 µM.

`Cn1cc(C(CN)c2cncc(/C=C/c3ccncc3)c2)c2ccccc21` (centres undefined) came in with a Ki above 10 µM.

Take `O=C(N[C@H](CO)c1ccccc1)N1CC=C(c2c[nH]c3ncccc23)CC1`: the Ki came to 0.398 µM.

Turning to `O=C(c1cc(-c2ccc3[nH]ncc3c2)on1)N1CCC[C@@H](O)C1`, the Ki is above 10 µM.

As to `Cc1n[nH]c2ccc(-c3cncc(OCCN)c3)cc12`, the Ki was 2 µM.

Regarding `O=c1[nH]cc(I)c2nc(-c3cccc(Cl)c3)cn12`, the Ki is 7.94 µM.

`COc1cncc(/C=C/c2ccncc2)c1` gave a Ki above 10 µM.

As for `N#Cc1c(O)[nH]c(=O)c2c(=N)oc3ccc(Cl)cc3c12`, the Ki is above 10 µM.

In turn, `COc1nccn2c(-c3ccnc(NCC(C)(C)CO)n3)c(-c3ccc(F)cc3F)nc12` returned a Ki above 10 µM.

As to `CS(=O)c1ccc(-c2nc(-c3ccc(F)cc3)c(-c3ccncc3)[nH]2)cc1` (centres undefined), the inhibition constant (Ki) was above 7.94 µM.

On to `CCOc1nc(NC(=O)Cc2cc(OC)c(S(C)(=O)=O)cc2OC)cc(N)c1C#N`, for which the Ki is above 10 µM.

In the case of `N[C@@H](COCc1ccccc1)COc1cncc(/C=C/c2ccncc2)c1`, the Ki was above 10 µM.

In the case of `C[C@H](Nc1c(Nc2ccncc2)c(=O)c1=O)c1ccccc1`, the Ki is above 10 µM.

Consider `Cc1cccc(/C=N/Nc2cc(N3CCOCC3)nc(OCCc3ccccn3)n2)c1`, for which the Ki was above 10 µM.

`c1ccc(CNc2nc3ccc(-c4ccncc4)cc3s2)cc1` showed an inhibitory constant (Ki) of 2.51 µM.

In turn, `C[C@]1(O)C[C@@H](c2nc(-c3ccc4ccc(-c5ccccc5)nc4c3)c3c(N)nccn32)C1` came in with a Ki above 10 µM.

As for `CCN(CC)CC#Cc1ccc2c(c1)-c1[nH]nc(-c3ccc(C#N)nc3)c1C2`, the Ki was above 10 µM.

For the compound `Nc1nccc(-c2c(-c3ccc(F)cc3)ncn2C2CCNCC2)n1`, the Ki worked out at 6.31 µM.

As to `Cc1cc(O)ccc1-n1c2cc(Cl)ccc2c(=O)c2c(N)nc(N)nc21`, the Ki was 5.01 µM. The Ki values of the last two compounds are within 1.5-fold of each other.

As to `Nc1nonc1-n1nnc(C(=O)N/N=C/c2cccs2)c1-c1cccs1`, the Ki is above 10 µM.

`COc1cccc(Nc2ncnc3ccccc23)c1` displayed a Ki above 10 µM.

`O=c1nc(-c2cc3c(Oc4ccc(I)cc4)cncc3s2)[nH]o1` registered a Ki of 0.794 µM. In other words, the sub-micromolar range.

`C/C(=N\NC(=O)c1nnn(-c2nonc2N)c1-c1ccccc1)c1ccco1` returned a Ki above 10 µM.

As to `NC(=O)c1cc2c(-c3cccc(F)c3)cncc2s1`, the Ki was 3.16 µM.

On to `Nc1n[nH]c2ccc(-c3nnn(Cc4ccccc4)c3-c3ccc(F)cc3)cc12`, for which the Ki turned out to be 2.51 µM.

Regarding `OCCNc1cc2cc(-c3cccnc3)ccc2cn1`, the Ki was found to be 3.98 µM.

Take `O=C(O)c1cc2c(-c3cccc(F)c3)cncc2s1`: the Ki was above 10 µM.

For the compound `COc1nccc(-c2c(-c3ccc(F)cc3)ncn2[C@H]2CC[C@H](O)CC2)n1`, the Ki was above 10 µM.

Consider `Cc1nc2c(sc3c(Br)ccc(Cl)c32)c(=O)o1`, for which the Ki is above 10 µM.

In turn, `CC(C)(O)CNc1nccc(-c2c(-c3ccc(F)cc3F)nc3c(CC4CC4)nccn23)n1` showed a Ki above 10 µM.

`CC(C)c1nnc2ccc(-c3c(-c4ccc(F)cc4F)nc4occn34)nn12` returned a Ki above 10 µM.

With `Cc1cccc(Cl)c1-c1cccc2c(CCCOc3cccc4ccccc34)c(C(=O)NCCOCCOCCN)[nH]c12`, the Ki was above 10 µM.

For the compound `O=C(NCc1ccc(Cl)cc1)c1cc2c(-c3ccccc3)n[nH]c2s1`, the inhibitory constant (Ki) was determined as 1 µM. That is a single-digit micromolar value.

`Cc1nn(C)c(C)c1-c1cccc2c(CCCOc3cccc4ccccc34)c(C(=O)O)[nH]c12`: the Ki is above 10 µM.

`Cc1cc(C)cc(NC(=O)Nc2ccc(-c3cccc4sncc34)cc2)c1`: the Ki is above 10 µM.

`CC(C)Oc1nccn2c(-c3ccnc(NCC(C)(C)O)n3)c(-c3ccc(F)cc3F)nc12` showed a Ki above 10 µM.

In the case of `OCCNc1cc2cc(-c3ccncc3)ccc2cn1`, the inhibitory constant (Ki) was above 10 µM.

The compound `Cc1cccc(NC(=O)Nc2ccc(-c3cnc4c(-c5cnn(C)c5)cnn4c3N)cc2)c1` gave an inhibition constant Ki of 6.31 µM.

`O=C(NCc1ccccc1)Nc1ncc([N+](=O)[O-])s1`: the inhibitory constant (Ki) was above 10 µM.

The compound `Cc1nc2ccccn2c1-c1csc(Nc2ccc(O)cc2)n1` gave a Ki above 10 µM.

`NC(=O)c1cccc2[nH]c(-c3ccc(C4CCCNC4)cc3F)nc12` (centres undefined): the Ki was above 10 µM.

Take `COc1cc(/C=C(\C#N)c2n[nH]c(N)c2C#N)ccc1O`: the Ki was above 10 µM.

Regarding `NC(=O)c1ccc(-c2c[nH]c3nccc(Cl)c23)cc1`, the Ki was found to be 0.251 µM. That is a sub-micromolar value.

With `CO[C@@H](C(=O)N1Cc2[nH]nc(NC(=O)c3ccc(N4CCN(C)CC4)cc3)c2C1)c1ccccc1`, the Ki was above 10 µM.

`CN1CCN([C@H]2CC[C@H](n3cc(-c4ccc(Oc5ccccc5)cc4)c4c(N)ncnc43)CC2)CC1` gave a Ki above 10 µM.

As to `O=C(N[C@H](CO)Cc1ccccc1)c1ccc(-c2ccncc2)cc1`, the inhibition constant Ki was 6.31 µM. In other words, the single-digit micromolar range.

For `Cc1ccc(F)c(NC(=O)Nc2ccc(-c3ccc4nccnc4c3N)cc2)c1`, the Ki is above 10 µM.
